In article PMC9821907, “Synthesis and Antiprotozoal Activity of Azabicyclo-Nonane Pyrimidine Hybrids” (Molecules, 2022):
Where two headings read alike, the source gives them in different places.

Experiments:
P. falciparum NF54 = test: In vitro microplate 3H-hypoxanthine incorporation assay against P. falciparum NF54; assay type: cell-based; conditions: Plasmodium falciparum
Description: (§1) Compounds were tested for their activities against Plasmodium falciparum NF54 (sensitive to chloroquine) and Trypanosoma brucei rhodesiense STIB900, via serial dilution assays. Furthermore, selected compounds were tested against the K1 strain of Plasmodium falciparum (resistant against chloroquine, sulfadoxine and pyrimethamine). Their cytotoxicity was determined with rat skeletal myoblasts (L-6 cells).
(§2) In vitro activity against erythrocytic stages of P. falciparum was determined using a ^3H-hypoxanthine incorporation assay using the drug sensitive NF54 strain [27] or the chloroquine- and pyrimethamine-resistant K1 strain [28]. Compounds were dissolved in DMSO at 10 mg/mL and further diluted in medium before being added to parasite cultures incubated in RPMI 1640 medium without hypoxanthine, supplemented with HEPES (5.94 g/L), NaHCO3 (2.1 g/L), neomycin (100 U/mL), Albumax® (5 g/L) and washed human red cells A+ at 2.5% haematocrit (0.3% parasitaemia). Serial drug dilutions of eleven 3-fold dilution steps covering a range from 100 to 0.002 μg/mL were prepared. The 96-well plates were incubated in a humidified atmosphere at 37 °C; 4% CO2, 3% O2, 93% N2. After 48 h, 0.05 mL of ^3H-hypoxanthine (= 0.5 μCi) was added to each well of the plate. The plates were incubated for a further 24 h under the same conditions. The plates were then harvested with a Betaplate™ cell harvester (Wallac, Zurich, Switzerland), and the red blood cells transferred onto a glass fibre filter then washed with distilled water. The dried filters were inserted into a plastic foil with 10 mL of scintillation fluid, and counted in a Betaplate™ liquid scintillation counter (Wallac, Zurich, Switzerland). IC50 values were calculated from sigmoidal inhibition curves by linear regression using Microsoft Excel. Chloroquine (Sigma C6628) was used as control.

[1] = In vitro cytotoxicity with L-6 cells; conditions: rat
Description: as §1
Assays were performed in 96-well microtiter plates, each well containing 0.1 mL of RPMI 1640 medium supplemented with 1% L-glutamine (200 mM) and 10% fetal bovine serum, and 4000 L-6 cells (a primary cell line derived from rat skeletal myoblasts, ATCC CRL-1458™). Serial drug dilutions of eleven 3-fold dilution steps covering a range from 100 to 0.002 μg/mL were prepared. After 70 h of incubation the plates were inspected under an inverted microscope to assure growth of the controls and sterile conditions. Then, 0.01 mL resazurin solution (resazurin, 12.5 mg in 100 mL double-distilled water) was added to each well and the plates incubated for another 2 h. The plates were read with a Spectramax Gemini XS microplate fluorometer (Molecular Devices Cooperation, Sunnyvale, CA, USA) using an excitation wave length of 536 nm and an emission wave length of 588 nm. The IC50 values were calculated by linear regression from the sigmoidal dose inhibition curves using SoftmaxPro software (Molecular Devices Cooperation, Sunnyvale, CA, USA). Podophyllotoxin (Sigma P4405) was used as control.

P. falciparum K1 = test: In vitro microplate 3H-hypoxanthine incorporation assay against P. falciparum K1; assay type: cell-based, Plasmodium falciparum
Description: as §1, §2

[2] = tested on: T. brucei rhodesiense STIB900; test: In vitro microplate resazurin assay against T. brucei rhodesiense; assay type: cell-based; conditions: Trypanosoma brucei, read-out: T. brucei rhodesiense STIB900 IC50
Description: as §1
Minimum essential medium (50 µL) supplemented with 25 mM HEPES, 1g/L additional glucose, 1% MEM non-essential amino acids (100×), 0.2 mM 2-mercaptoethanol, 1mM Na-pyruvate and 15% heat-inactivated horse serum was added to each well of a 96-well microtiter plate. Serial drug dilutions of eleven 3-fold dilution steps covering a range from 100 to 0.002 μg/mL were prepared. Then 4 × 10^3 bloodstream forms of T. b. rhodesiense STIB 900 in 50 µL was added to each well and the plate incubated at 37 °C under a 5 % CO2 atmosphere for 70 h. Next, 10 µL resazurin solution (resazurin, 12.5 mg in 100 mL double-distilled water) was added to each well and incubation continued for a further 2–4 h. Then the plates were read with a Spectramax Gemini XS microplate fluorometer (Molecular Devices Cooperation, Sunnyvale, CA, USA) using an excitation wave length of 536 nm and an emission wave length of 588 nm. Data were analyzed with the graphic programme Softmax Pro (Molecular Devices Cooperation, Sunnyvale, CA, USA), which calculated IC50 values by linear regression and 4-parameter logistic regression from the sigmoidal dose inhibition curves. Melarsoprol (Arsobal Sanofi-Aventis, received from WHO) was used as control.

[3] = bloodstream forms, average of four determinations
[4] = NF54 strain, sensitive to chloroquine and pyrimethamine, average of four determinations, read-out: P. falciparum NF54 IC50
[5] = Plasmodium falciparum, K1, K1 strain, resistant to chloroquine, sulfadoxine and pyrimethamine, average of four determinations, read-out: P. falciparum K1 IC50

IC50 at 72 h [1] [nM]	IC50 [2, 3] [nM]	IC50 (P. falciparum NF54; [4]) [nM]	IC50 (P. falciparum K1; [5]) [nM]	IC50 (P. falciparum K1; K1 strain, resistant to chloroquine, sulfadoxine and pyrimethamine, average of four determinations, read-out: P. falciparum K1 IC50) [nM]	SMILES	IC50 (P. falciparum NF54; NF54, read-out: P. falciparum NF54 IC50) [nM]	IC50 (P. falciparum K1; Plasmodium falciparum, K1, read-out: P. falciparum K1 IC50) [nM]	IC50 [2] [nM]
23200 ± 9930	575 ± 33	617 ± 8	–	–	Cc1cc(N2CCC3(N4CCCCC4)C[C@H](c4ccccc4)C2[C@@H](c2ccccc2)C3)nc(N2CCCC2)n1 (racemic) [Compound 17, rac-(7R,8R)-2-[6-methyl-2-(pyrrolidin-1-yl)pyrimidin-4-yl]-7,8-diphenyl-5-(piperidin-1-yl)-2-azabicyclo[3.2.2]nonane]	–	–	–
10600 ± 1940	3310 ± 235	212 ± 12	140 ± 33	–	Cc1cc(N2CCC3(N4CCCCC4)CC(c4ccccc4)C2C(c2ccccc2)C3)nc(N)n1 (racemic) [Compound 5, rac-4-[(7R,8R)-7,8-diphenyl-5-(piperidin-1-yl)-2-azabicyclo[3.2.2]nonan-2-yl]-6-methylpyrimidin-2-amine]	–	–	–
12500 ± 3310	161	88 ± 57	–	–	Cc1cc(N2CCC3(N4CCCC4)CC(c4ccccc4)C2C(c2ccccc2)C3)nc(N)n1 (racemic) [Compound 6, rac-4-[(7R,8R)-7,8-diphenyl-5-(pyrrolidin-1-yl)-2-azabicyclo[3.2.2]nonan-2-yl]-6-methylpyrimidin-2-amine]	–	–	–
11260 ± 33	853 ± 16	79 ± 1	216 ± 37	–	Nc1cc(N2CCC3(N4CCCC4)CC(c4ccccc4)C2C(c2ccccc2)C3)nc(N)n1 (racemic) [Compound 10, rac-6-[(7R,8R)-7,8-diphenyl-5-(pyrrolidin-1-yl)-2-azabicyclo[3.2.2]nonan-2-yl]pyrimidine-2,4-diamine]	–	–	–
9730 ± 661	1560 ± 643	51 ± 7	51 to 94	94 ± 4	Nc1cc(N2CCC3(N4CCCCC4)CC(c4ccccc4)C2C(c2ccccc2)C3)nc(N)n1 (racemic) [Compound 9, rac-6-[(7R,8R)-7,8-diphenyl-5-(piperidin-1-yl)-2-azabicyclo[3.2.2]nonan-2-yl]pyrimidine-2,4-diamine]	–	–	–
9620 ± 1100	1640 ± 22	1040 ± 302	366 ± 95	–	Cc1cc(N2CCC3(N4CCCC4)C[C@H](c4ccccc4)C2[C@@H](c2ccccc2)C3)nc(Cl)n1 (racemic) [Compound 14, rac-(7R,8R)-2-(2-chloro-6-methylpyrimidin-4-yl)-7,8-diphenyl-5-(pyrrolidin-1-yl)-2-azabicyclo[3.2.2]nonane]	–	–	–
3100 ± 51	1550 ± 47	694 ± 18	567 ± 47	–	Cc1cc(N2CCC3(N4CCCCC4)C[C@H](c4ccccc4)C2[C@@H](c2ccccc2)C3)nc(Cl)n1 (racemic) [Compound 13, rac-(7R,8R)-2-(2-chloro-6-methylpyrimidin-4-yl)-7,8-diphenyl-5-(piperidin-1-yl)-2-azabicyclo[3.2.2]nonane]	–	–	–
6730 ± 3080	107 ± 49	406 ± 15	–	–	Cc1cc(N2CCC3(N4CCCC4)C[C@H](c4ccccc4)C2[C@@H](c2ccccc2)C3)nc(N2CCCCC2)n1 (racemic) [Compound 22, rac-(7R,8R)-2-[6-methyl-2-(piperidin-1-yl)pyrimidin-4-yl]-7,8-diphenyl-5-(pyrrolidin-1-yl)-2-azabicyclo[3.2.2]nonane]	–	–	–
15000 ± 483	95 ± 32	136 ± 16	59 ± 2	–	Cc1cc(N2CCC3(N4CCCC4)C[C@H](c4ccccc4)C2[C@@H](c2ccccc2)C3)nc(N2CCCC2)n1 (racemic) [Compound 18, rac-(7R,8R)-2-[6-methyl-2-(pyrrolidin-1-yl)pyrimidin-4-yl]-7,8-diphenyl-5-(pyrrolidin-1-yl)-2-azabicyclo[3.2.2]nonane]	–	–	–
104000 ± 27000	8720 ± 4200	4700 ± 1180	–	–	Cc1cc(N2CCC3(N4CCCCC4)C[C@H](c4ccccc4)C2[C@@H](c2ccccc2)C3)nc(N2CCCCC2)n1 (racemic) [Compound 21, rac-(7R,8R)-2-[6-methyl-2-(piperidin-1-yl)pyrimidin-4-yl]-7,8-diphenyl-5-(piperidin-1-yl)-2-azabicyclo[3.2.2]nonane]	–	–	–

SMILES	IC50 at 72 h [1] [nM]	IC50 [2, 3] [nM]	IC50 (P. falciparum NF54; [4]) [nM]	IC50 (P. falciparum K1; [5]) [nM]	IC50 (P. falciparum K1; K1 strain, resistant to chloroquine, sulfadoxine and pyrimethamine, average of four determinations, read-out: P. falciparum K1 IC50) [nM]	IC50 (P. falciparum NF54; NF54, read-out: P. falciparum NF54 IC50) [nM]	IC50 (P. falciparum K1; Plasmodium falciparum, K1, read-out: P. falciparum K1 IC50) [nM]	IC50 [2] [nM]
CCN(CC)CCCC(C)Nc1ccnc2cc(Cl)ccc12 (centres unmarked) [CQ, chloroquine, reference compound]	90900	–	–	–	–	3.9	163	–
Cc1cc(N2CC3C(c4ccccc4)CC(N4CCCCC4)(CC3c3ccccc3)C2)nc(N2CCCCC2)n1 (racemic) [Compound 23, rac-(7R,8R)-3-[6-methyl-2-(piperidin-1-yl)pyrimidin-4-yl]-6,9-diphenyl-1-(piperidin-1-yl)-3-azabicyclo[3.2.2]nonane]	16000 ± 1240	3380 ± 9	607 ± 10	570 ± 12	–	–	–	–
Cc1cc(N2CC3C(c4ccccc4)CC(N4CCCC4)(CC3c3ccccc3)C2)nc(Cl)n1 (racemic) [Compound 16, rac-(7R,8R)-3-(2-chloro-6-methylpyrimidin-4-yl)-6,9-diphenyl-1-(pyrrolidin-1-yl)-3-azabicyclo[3.2.2]nonane]	12500 ± 1440	4310 ± 21	281 ± 6	292 ± 21	–	–	–	–
Cc1cc(N2CC3C(c4ccccc4)CC(N4CCCCC4)(CC3c3ccccc3)C2)nc(Cl)n1 (racemic) [Compound 15, rac-(7R,8R)-3-(2-chloro-6-methylpyrimidin-4-yl)-6,9-diphenyl-1-(piperidin-1-yl)-3-azabicyclo[3.2.2]nonane]	27200 ± 11800	9510 ± 914	1490 ± 784	2080 ± 430	–	–	–	–
Cc1cc(N2CC3C(c4ccccc4)CC(N4CCCC4)(CC3c3ccccc3)C2)nc(N2CCCCC2)n1 (racemic) [Compound 24, rac-(7R,8R)-3-[6-methyl-2-(piperidin-1-yl)pyrimidin-4-yl]-6,9-diphenyl-1-(pyrrolidin-1-yl)-3-azabicyclo[3.2.2]nonane]	61800 ± 27900	1450 ± 116	3790 ± 163	–	–	–	–	–
Cc1cc(N2CC3C(c4ccccc4)CC(N4CCCC4)(CC3c3ccccc3)C2)nc(N2CCCC2)n1 (racemic) [Compound 20, rac-(7R,8R)-3-[6-methyl-2-(pyrrolidin-1-yl)pyrimidin-4-yl]-6,9-diphenyl-1-(pyrrolidin-1-yl)-3-azabicyclo[3.2.2]nonane]	4160 ± 39	764 ± 335	87 ± 59	87 ± 47	–	–	–	–
Cc1cc(N2CC3C(c4ccccc4)CC(N4CCCCC4)(CC3c3ccccc3)C2)nc(N2CCCC2)n1 (racemic) [Compound 19, rac-(7R,8R)-3-[6-methyl-2-(pyrrolidin-1-yl)pyrimidin-4-yl]-6,9-diphenyl-1-(piperidin-1-yl)-3-azabicyclo[3.2.2]nonane]	58400 ± 22900	3160 ± 1060	5290 ± 134	694 ± 268	–	–	–	–
Nc1nc(N)nc(Nc2ccc([As]3SCC(CO)S3)cc2)n1 (centres unmarked) [MEL, melarsoprol, reference compound]	7780	–	–	–	–	–	–	10
Cc1cc(N2CC3C(c4ccccc4)CC(N4CCCC4)(CC3c3ccccc3)C2)nc(N)n1 (racemic) [Compound 8]	4480 ± 1440	322 ± 151	62 ± 1	–	–	–	–	–
